{"source": "patent US6833248B2", "about": "“Human caspase-12 materials and methods” (Pharmacia & Upjohn Company, priority 2000, dated 2004)", "key": {"[1]": {"system": "endogenous human caspase-12", "assay": "Induction of endogenous caspase-12 protein by ER stress-inducing agents in SH-EP cells (Western blot)", "assay_type": "cell-based", "experimental": "Reports in the literature indicated a strong activation of murine caspase-12 in response to agents which induce an endoplasmic reticulum (ER) stress response, such as tunicamycin or the Ca^2+ ionophore A23187. The activation of endogenous human caspase-12 by these ER stress-inducing agents in SH-EP and HEK293 cells was evaluated by Western blot analysis of cell lysates. SH-EP is a neuroblastoma cell line that endogenously expresses human caspase-12 at detectable levels. HEK293 is a transformed kidney cell line that lacks detectable caspase-12.\nCell cultures were treated with 1 μg/ml tunicamycin or 2 μM A23187 (Calbiochem) and harvested over time. Cells were lysed in detergent buffer, cellular proteins resolved on NuPAGE gels and subjected to Western blot analysis using the same antibody as in Example 8A above. […] (BACHEM) for 40 hours.\n(§1) The biological significance of caspase-12 up-regulation by the ER stress-inducing agent A23187 in apoptosis was further investigated. SH-EP cells were treated with 2 μM A23187 for 40 hours to induce expression of endogenous caspase-12. One control culture was left untreated. Of the four cultures treated with A23187, one culture received 10 μg/ml cycloheximide (CHX) to block new protein synthesis and two cultures were subjected to an apoptotic stimulus, either 250 ng/ml α-Fas antibody for 24 hours or 1200 microjoules UV irradiation. The cultures were harvested after 6.5 hours. Western blot analysis of caspase-12 expression and activation was done as described above in Example 8A, using similar protein loads for each condition tested."}, "[2]": {"system": "endogenous caspase-12", "assay": "Caspase-12 cleavage/activation in SH-EP cells subjected to ER stress (Western blot)", "assay_type": "cell-based, human", "conditions": "2 μM A23187 40 hours, harvested 6.5 hours after UV", "experimental": "as §1\nAdditional experiments of were conducted to evaluate the effect of a caspase or calpain inhibitor on SH-EP cells subjected to ER stress. Z-VAD-fmk (Z=benzyloxycarbonyl group at the N-terminus of Val-Ala-DL-Asp(OMe)-fluoromethylketone; BACHEM) is a general caspase inhibitor that inhibits most of the known caspases, to varying extents. Calpeptin is an inhibitor of calpains, a family of calcium-dependent proteases that proteolyze a variety of cellular proteins. […] Caspase activation was evaluated by Western blot using antibodies to caspase-12 as described above in Example 8A. […]"}, "[3]": {"system": "caspase-3", "assay": "Caspase-3 cleavage following UV irradiation in SH-EP cells subjected to ER stress (Western blot)", "assay_type": "cell-based", "conditions": "2 μM A23187 40 hours"}}, "note": "Residues, ends and D or L forms follow the SMILES beside them. *: point of attachment. Cbz = O=C(OCc1ccccc1)*; CH2F = FC*", "data": [{"compound": "β-amyloid [25-35]: β-amyloid [25-35] (BACHEM) (GSNKGAIIGLM; Amyloid-beta protein 42; UniProt P05067 696-706, looked up, fragment)", "values": [{"measurement": "Induction of human caspase-12", "setting": "[1]; cultures treated with 40 μM β-amyloid [25-35] for 40 hours", "value": "induction of human caspase-12 was observed"}]}, {"compound": "CNc1ccc2oc(C[C@H]3O[C@@]4(CC[C@H]3C)O[C@H]([C@H](C)C(=O)c3ccc[nH]3)[C@H](C)C[C@H]4C)nc2c1C(=O)O", "note": "[A23187]", "values": [{"measurement": "Induction of caspase-12 protein", "setting": "[1]; SH-EP cells, 2 μM A23187, harvested over time", "value": "strong induction"}, {"measurement": "Expression of caspase-12", "setting": "[1]; SH-EP cells, 2 μM A23187 for 40 hours", "value": "induced"}]}, {"compound": "C[C@@H]1C[C@@H]([C@H](O)CC2CC(=O)NC(=O)C2)C(=O)[C@@H](C)C1", "note": "[cycloheximide]", "values": [{"measurement": "A23187-induced expression of caspase-12", "setting": "[1]; SH-EP cells, 2 μM A23187 for 40 hours plus 10 μg/ml cycloheximide", "value": "inhibited"}]}, {"compound": "CCCC[C@@H](C=O)NC(=O)[C@H](CC(C)C)NC(=O)OCc1ccccc1", "note": "[calpeptin]", "values": [{"measurement": "Cleavage of procaspase-12 after UV irradiation", "setting": "[2]; pre-incubated with 10 μM calpeptin 1 hour prior to UV", "value": "reduced"}, {"measurement": "Cleavage of caspase-3 following UV irradiation", "setting": "[3]; 10 μM calpeptin", "value": "not affected"}]}, {"compound": "COC(=O)C[C@H](NC(=O)[C@H](C)NC(=O)[C@@H](NC(=O)OCc1ccccc1)C(C)C)C(=O)CF", "note": "[Z-VAD-fmk] (Cbz-Val-Ala-Asp(OMe)-CH2F)", "values": [{"measurement": "Cleavage of pro-caspase-12 after UV irradiation", "setting": "[2]; pre-incubated with 50 μM Z-VAD-fmk 1 hour prior to UV", "value": "reduces cleavage"}, {"measurement": "Cleavage of caspase-3 following UV irradiation", "setting": "[3]; 50 μM Z-VAD-fmk", "value": "inhibited"}]}]}
